{"source": "paper PMC3849221", "about": "(NeuroImage, 2013)", "key": {"CB1 receptor [1]": {"target": "T1, CB1 receptor (Homo sapiens, UniProt P21554)", "T1 sequence (P21554 whole entry)": "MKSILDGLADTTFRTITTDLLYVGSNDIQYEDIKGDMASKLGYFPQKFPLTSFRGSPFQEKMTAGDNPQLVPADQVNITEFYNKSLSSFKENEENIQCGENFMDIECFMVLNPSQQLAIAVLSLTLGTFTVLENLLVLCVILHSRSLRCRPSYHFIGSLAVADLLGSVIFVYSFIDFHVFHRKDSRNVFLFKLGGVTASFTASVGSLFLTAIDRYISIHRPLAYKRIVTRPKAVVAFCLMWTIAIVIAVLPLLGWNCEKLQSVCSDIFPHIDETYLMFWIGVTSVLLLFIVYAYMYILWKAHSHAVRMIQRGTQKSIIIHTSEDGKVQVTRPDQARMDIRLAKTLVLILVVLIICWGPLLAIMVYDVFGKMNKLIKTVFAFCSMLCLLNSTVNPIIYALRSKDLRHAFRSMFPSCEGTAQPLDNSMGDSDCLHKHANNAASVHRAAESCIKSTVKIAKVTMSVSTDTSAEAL", "type": "binding"}, "CB1 receptor [2]": {"target": "T1, CB1 receptor", "details": "cited from earlier work; for VT / Intersubject Variability of VT (SD/mean): human; for VT: mean±SD"}, "Lipophilicity LogD7.4": {"assay": "Lipophilicity LogD7.4", "type": "physicochemical", "details": "n-octanol / 0.15 M sodium phosphate buffer pH 7.4, room temperature, 6 measurements"}, "CB1 receptor [3]": {"test_system": "CB1 receptor", "details": "ref Terry et al., 2010, cited from earlier work; for Specific binding (%) / VT (striatum) Baseline / VT (striatum) Preblocked: monkey striatum"}, "[4]": {"details": "Cingulate, n=10, 90min, ref Wong et al, 2010"}, "[5]": {"details": "Globus pallidus, n=10, 90min, ref Wong et al, 2010"}, "[6]": {"details": "Putamen, n=10, 90min, ref Wong et al, 2010"}, "[7]": {"details": "human parietal cortex, displacement of [3H]MePPEP, n=6"}, "[8]": {"details": "Frontal, n=9, 120min, ref Terry et al., 2010"}, "[9]": {"details": "Putamen, n=9, 120min, ref Terry et al., 2010"}, "[10]": {"details": "Thalamus, n=9, 120min, ref Terry et al., 2010"}, "[11]": {"details": "Frontal, n=17, 150min, ref Terry et al, 2009"}, "[12]": {"details": "Putamen, n=17, 150min, ref Terry et al, 2009"}, "[13]": {"details": "Thalamus, n=17, 150min, ref Terry et al, 2009"}}, "note": "pKi: −log10 of the molar value. Read-outs that look alike come from different tables or passages of the source."}
{"smiles": "COc1ccc(-c2c(C#N)c(C(=O)NN3CCCCC3)nn2-c2ccc(Cl)cc2Cl)cc1", "note": "[^11C-OMAR]", "values": [{"measurement": "pKi", "setting": "CB1 receptor [1]", "result": 8.69}, {"measurement": "VT", "setting": "CB1 receptor [2]; [4]", "result": "1.23±0.16", "unit": "mL · cm^−3"}, {"measurement": "Intersubject Variability of VT (SD/mean)", "setting": "CB1 receptor [2]; [4]", "result": 13, "unit": "%"}, {"measurement": "VT", "setting": "CB1 receptor [2]; [5]", "result": "1.47±0.25", "unit": "mL · cm^−3"}, {"measurement": "Intersubject Variability of VT (SD/mean)", "setting": "CB1 receptor [2]; [5]", "result": 17, "unit": "%"}, {"measurement": "VT", "setting": "CB1 receptor [2]; [6]", "result": "1.32±0.20", "unit": "mL · cm^−3"}, {"measurement": "Intersubject Variability of VT (SD/mean)", "setting": "CB1 receptor [2]; [6]", "result": 15, "unit": "%"}]}
{"smiles": "Cc1ccc(OC(C)(C)C(=O)N[C@@H](C)[C@@H](Cc2ccc(OCCF)cc2)c2cccc(C#N)c2)nc1", "note": "[^18F-MK-9470]", "values": [{"measurement": "Intersubject Variability of VT (SD/mean)", "setting": "CB1 receptor [2]; Frontal, n=12, 700, 360, 150min, ref Sanabria-Bohórquez et al., 2010", "result": 58, "unit": "%"}, {"measurement": "Intersubject Variability of VT (SD/mean)", "setting": "CB1 receptor [2]; Putamen, n=12, 700, 360, 150min, ref Sanabria-Bohórquez et al., 2010", "result": 53, "unit": "%"}, {"measurement": "Intersubject Variability of VT (SD/mean)", "setting": "CB1 receptor [2]; Thalamus, n=12, 700, 360, 150min, ref Sanabria-Bohórquez et al., 2010", "result": 60, "unit": "%"}]}
{"smiles": "COc1ccc(-c2c(C#N)c(C(=O)NN3CCCCC3)nn2-c2ccc(Cl)cc2Cl)cc1", "note": "[OMAR]", "values": [{"measurement": "pKi", "setting": "CB1 receptor [1]; [7]", "result": 8.69}]}
{"smiles": "[2H]C([18F])Oc1cccc([C@H]2C[C@@H](N[C@H](C)c3ccccc3)C(=O)N2c2ccc(C(F)(F)F)cc2)c1", "note": "(stereo partly shown) [^18F-FMPEP-d2]", "values": [{"measurement": "LogD7.4", "setting": "Lipophilicity LogD7.4", "result": "4.24±0.08"}, {"measurement": "percentage of specific binding in monkey brain", "setting": "CB1 receptor [3]; monkey brain", "result": 85, "unit": "%"}, {"measurement": "Specific binding (%)", "setting": "CB1 receptor [3]", "result": 85, "unit": "%"}, {"measurement": "VT (striatum) Baseline", "setting": "CB1 receptor [3]", "result": 35.4, "unit": "mL·cm^−3"}, {"measurement": "VT (striatum) Preblocked", "setting": "CB1 receptor [3]", "result": 5.4, "unit": "mL·cm^−3"}, {"measurement": "VT", "setting": "CB1 receptor [2]; [8]", "result": "22.7±6.4", "unit": "mL · cm^−3"}, {"measurement": "Intersubject Variability of VT (SD/mean)", "setting": "CB1 receptor [2]; [8]", "result": 28, "unit": "%"}, {"measurement": "VT", "setting": "CB1 receptor [2]; [9]", "result": "24.3±7.2", "unit": "mL · cm^−3"}, {"measurement": "Intersubject Variability of VT (SD/mean)", "setting": "CB1 receptor [2]; [9]", "result": 29, "unit": "%"}, {"measurement": "VT", "setting": "CB1 receptor [2]; [10]", "result": "9.6±2.5", "unit": "mL · cm^−3"}, {"measurement": "Intersubject Variability of VT (SD/mean)", "setting": "CB1 receptor [2]; [10]", "result": 26, "unit": "%"}, {"measurement": "peak brain uptake", "setting": "CB1 receptor [2]; species not given, ref Terry et al., 2010", "result": "~ 6 SUV"}]}
{"smiles": "N#Cc1ccc(S(=O)(=O)NC(=N)N2CC(c3ccccc3)C(c3ccc(Cl)cc3)=N2)cc1", "note": "(stereo not drawn) [^11C-SD5024, [cyano-^11C](−)-3-(4-chlorophenyl)-N-[(4-cyanophenyl)sulfonyl]-4-phenyl-4,5-dihydro-1H-pyrazole-1-carboxamidine]", "values": [{"measurement": "pKi", "setting": "CB1 receptor [1]; [7]", "result": 9.33}]}
{"smiles": "C[C@@H](N[C@@H]1C[C@H](c2cccc(O[11CH3])c2)N(c2ccc(C(F)(F)F)cc2)C1=O)c1ccccc1", "note": "[^11C-MePPEP]", "values": [{"measurement": "LogD7.4", "setting": "Lipophilicity LogD7.4", "result": "4.77±0.27"}, {"measurement": "Specific binding (%)", "setting": "CB1 receptor [3]", "result": 88, "unit": "%"}, {"measurement": "VT (striatum) Baseline", "setting": "CB1 receptor [3]", "result": 24.3, "unit": "mL·cm^−3"}, {"measurement": "VT (striatum) Preblocked", "setting": "CB1 receptor [3]", "result": 2.9, "unit": "mL·cm^−3"}, {"measurement": "VT", "setting": "CB1 receptor [2]; [11]", "result": "22.4±12.8", "unit": "mL · cm^−3"}, {"measurement": "Intersubject Variability of VT (SD/mean)", "setting": "CB1 receptor [2]; [11]", "result": 57, "unit": "%"}, {"measurement": "VT", "setting": "CB1 receptor [2]; [12]", "result": "29.1±17.4", "unit": "mL · cm^−3"}, {"measurement": "Intersubject Variability of VT (SD/mean)", "setting": "CB1 receptor [2]; [12]", "result": 60, "unit": "%"}, {"measurement": "VT", "setting": "CB1 receptor [2]; [13]", "result": "11.2±5.0", "unit": "mL · cm^−3"}, {"measurement": "Intersubject Variability of VT (SD/mean)", "setting": "CB1 receptor [2]; [13]", "result": 44, "unit": "%"}]}
